Results: patent US9052321B2, “Flavivirus-based system for production of hepatitis C virus (HCV)” (priority 2008, dated 2015)

Tested on: HCV particles released by BHK-21 parental or BHK-WNV1 cells
Assay: Release of HCV envelope proteins/particles by BHK cells transfected with pHCVp7 after glycosylation or trafficking inhibitors (Western blot)
Assay type: cell-based, HCV 1a
Conditions: for secretion of HCV envelope as well as core proteins: BHK parental and -WNV SG-replicon cells transfected with pHCVp7, 3 mM dnj, 3 mM pag or 0.3 mM alloxan, Western blot; for HCV production and/or secretion: summary in the model of FIG. 13
Description: FIG. 2 illustrates factors affecting the release of HCV structural proteins: A) Enhancement by flavivirus, but not alphavirus subgenomic, replicons in BHK-21 cells: BHK-21 parental cells (lane 1) or bearing WNV1 (lane 2), Den2 (lane 3) or Semliki Forest virus SG-replicon (lane 4) were transfected with pHCVp7 (plasmid encoding HCV core to p7). Three days later, clarified culture media were pelleted over 15% sucrose cushion, then pellets were analyzed by Western blot with the following monoclonal antibodies: i) anti-HCV E2: AP33; ii) anti-HCV E1: A4, and iii) anti-HCV core: C1. B) WNV- and HCV-SG rep differentially affect the release of HCV-like particles. (left) BHK-21 cells, parental or bearing WNV1 SG-rep, were transfected with HCVp7, a plasmid encoding HCV core to p7. Three days later, HCV proteins in the lysate and supernatants (SN) were analyzed by Western Blot (WB). (right) HuH-7.5 cells (parental or harboring HCV 1a SG-rep) transfected with the same plasmid, were analyzed by WB. *, the E1/E2 signals were obtained with 60 ml of culture media instead of 15 ml for BHK parental and -WNV1 cells. C) N-glycosylation but not O-glycosylation is required for the release of HCV particles: BHK cells were transfected with pHCVp7, then treated or not with 3 mM deoxynojirimycin (dnj), 3 mM phenyl acetyl galactosaminide (pag) or 0.3 mM alloxan (all) for 2 days; HCV E1 Envelope released by BHK-21 parental or BHK-WNV1 cells was analyzed by Western blot after incubation with or without endoglycosidase H (endo-H).
FIG. 11 illustrates that secretion of HCV particles involves maturation of HCV glycoproteins in Golgi apparatus: A) Twelve hours after transfection of BHK-WNV1 cells with pHCVp7, cells were treated with 20 μM brefeldin-A (BFA) for 24 hours and the amounts of HCV E1 and E2 proteins in cell lysates and released particles were analyzed by WB; Hsp70=control. B) BHK and BHK-WNV1 cells were transfected with pHCVp7. Three days later, cells and particles in SN were harvested and treated with endo-H, followed by WB analysis. *, 30 ml culture media was used for parental BHK cells (15 ml for BHK-WNV1 cells).
To test the sensitivity of HCV glycoproteins produced in BHK-21 cells to endo-beta-N-acetyl-glucosaminidase H (endoglycosidase H/endo-H; New England Biolabs), cells were transfected with pHCVp7 plasmid. Three days later, supernatant was harvested as above; cell lysate and supernatant were then incubated in the presence of endo-H according to the manufacturer's protocols. For deoxyrijinomycin (DNJ) and brefeldin A (BFA) treatment, cells were transfected with pHCVp7 and, 12 hr later, the medium was replaced with DMEM containing 5 μg/ml BFA (Sigma), or 3 mM DNJ. Cells were grown for another 24 hr and supernatant was harvested.

O=C1NC(=O)C(=O)C(=O)N1 [alloxan]
secretion of HCV envelope as well as core proteins: marginal effects

CC(=O)N[C@H]1[C@@H](Oc2ccccc2)O[C@H](CO)[C@H](O)[C@@H]1O [phenyl acetyl galactosaminide]
secretion of HCV envelope as well as core proteins: marginal effects

OC[C@H]1NC[C@H](O)[C@@H](O)[C@@H]1O [DNJ, deoxynojirimycin]
secretion of HCV envelope as well as core proteins: strongly inhibited
HCV production and/or secretion (BHK-WNV1 cells): blocked
release of HCV particles (parental BHK-21 and BHK-WNV1 cells, 3 mM DNJ): decreased

C[C@H]1CCC/C=C/[C@@H]2C[C@H](O)C[C@H]2[C@H](O)/C=C/C(=O)O1 [BFA, brefeldin A]
HCV secretion (BHK-WNV1 cells, 20 μM BFA for 24 hours): abrogated
electrophoretic mobility of intracellular HCV envelope proteins (BHK-WNV1 cells, BFA): enhanced
HCV production and/or secretion (BHK-WNV1 cells): blocked
